Data: PubChem BioAssay AID1963875 (Molecular Pharmacology Branch, DTP, NCI, 2024)

System: KRAS-mutant PDC complex spheroid viability
Assay: Anticancer human tumor 186277-243-T-J2-PDC patient-derived colon adenocarcinoma cell line growth inhibition [KRAS2]
Conditions: for viability, T/C: stronger effect = lower value
How it was run: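 KRAS-mutant tumor cells were grown as spheroids with HUVEC endothelial cells and human MSCs as stroma. Targeted agents were tested alone and with KRAS pathway inhibitors. Doses started at or near clinical Cmax, or 10 microM, descending half-log.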

[1] = curve of first compound, second compound 0.1 µM
[2] = curve of first compound, second compound 0.316 µM
[3] = curve of first compound, second compound 1 µM
[4] = curve of first compound, second compound 3.16 µM
[5] = curve of first compound, second compound 10 µM
[6] = second compound 0.1 µM, first compound 0.000316 µM
[7] = second compound 0.1 µM, first compound 0.001 µM
[8] = second compound 0.1 µM, first compound 0.00316 µM
[9] = second compound 0.1 µM, first compound 0.01 µM
[10] = second compound 0.1 µM, first compound 0.0316 µM
[11] = second compound 0.1 µM, first compound 0.1 µM
[12] = second compound 0.316 µM, first compound 0.000316 µM
[13] = second compound 0.316 µM, first compound 0.001 µM
[14] = second compound 0.316 µM, first compound 0.00316 µM
[15] = second compound 0.316 µM, first compound 0.01 µM
[16] = second compound 0.316 µM, first compound 0.0316 µM
[17] = second compound 0.316 µM, first compound 0.1 µM
[18] = second compound 1 µM, first compound 0.000316 µM
[19] = second compound 1 µM, first compound 0.001 µM
[20] = second compound 1 µM, first compound 0.00316 µM
[21] = second compound 1 µM, first compound 0.01 µM
[22] = second compound 1 µM, first compound 0.0316 µM
[23] = second compound 1 µM, first compound 0.1 µM
[24] = second compound 3.16 µM, first compound 0.000316 µM
[25] = second compound 3.16 µM, first compound 0.001 µM
[26] = second compound 3.16 µM, first compound 0.00316 µM
[27] = second compound 3.16 µM, first compound 0.01 µM
[28] = second compound 3.16 µM, first compound 0.0316 µM
[29] = second compound 3.16 µM, first compound 0.1 µM
[30] = second compound 10 µM, first compound 0.000316 µM
[31] = second compound 10 µM, first compound 0.001 µM
[32] = second compound 10 µM, first compound 0.00316 µM
[33] = second compound 10 µM, first compound 0.01 µM
[34] = second compound 10 µM, first compound 0.0316 µM
[35] = second compound 10 µM, first compound 0.1 µM
[36] = second compound 0.1 µM, first compound 0.316 µM
[37] = second compound 0.1 µM, first compound 1 µM
[38] = second compound 0.1 µM, first compound 3.16 µM
[39] = second compound 0.316 µM, first compound 0.316 µM
[40] = second compound 0.316 µM, first compound 1 µM
[41] = second compound 0.316 µM, first compound 3.16 µM
[42] = second compound 1 µM, first compound 0.316 µM
[43] = second compound 1 µM, first compound 1 µM
[44] = second compound 1 µM, first compound 3.16 µM
[45] = second compound 3.16 µM, first compound 0.316 µM
[46] = second compound 3.16 µM, first compound 1 µM
[47] = second compound 3.16 µM, first compound 3.16 µM
[48] = second compound 10 µM, first compound 0.316 µM
[49] = second compound 10 µM, first compound 1 µM
[50] = second compound 10 µM, first compound 3.16 µM
[51] = second compound 0.1 µM, first compound 10 µM
[52] = second compound 0.316 µM, first compound 10 µM
[53] = second compound 1 µM, first compound 10 µM
[54] = second compound 3.16 µM, first compound 10 µM
[55] = second compound 10 µM, first compound 10 µM
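Wherever viability, T/C is given: viability read after seven days of compound exposure; 100% = DMSO vehicle-treated spheroids so lower means less viable.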

Row | Structure (SMILES) | IC50 [1] | IC50 [2] | IC50 [3] | IC50 [4] | IC50 [5] | viability, T/C [10] | viability, T/C [11] | viability, T/C [16] | viability, T/C [17] | viability, T/C [22] | viability, T/C [23] | viability, T/C [28] | viability, T/C [29] | viability, T/C [34] | viability, T/C [35] | viability, T/C [36] | viability, T/C [37] | viability, T/C [38] | viability, T/C [39] | viability, T/C [40] | other results
1 | Cn1ncnc1[C@H]1c2n[nH]c(=O)c3cc(F)cc(c23)N[C@@H]1c1ccc(F)cc1 + CNCc1ccccc1-c1csc(C(C)Nc2nc(C)nc3cc(OC)c(OC)cc23)c1 | > 100 nM | > 100 nM | > 100 nM | < 0.316 nM | < 0.316 nM | 83.8% | 68.9% | 76.4% | 68.7% | 70.4% | 59.5% | 14.5% | 10.9% | 0.13% | 0.21% |  |  |  |  |  | viability, T/C [6]: 113%; viability, T/C [7]: 109%; viability, T/C [8]: 109%; viability, T/C [9]: 101%; viability, T/C [12]: 117%; viability, T/C [13]: 106%; viability, T/C [14]: 115%; viability, T/C [15]: 89.3%; viability, T/C [18]: 112%; viability, T/C [19]: 110%; viability, T/C [20]: 97.9%; viability, T/C [21]: 86%; viability, T/C [24]: 25.5%; viability, T/C [25]: 0.4%; viability, T/C [26]: 28.8%; viability, T/C [27]: 12.7%; viability, T/C [30]: 0.14%; viability, T/C [31]: 0.14%; viability, T/C [32]: 0.14%; viability, T/C [33]: 0.13%
2 | CC(=O)OC12COC1CC(O)C1(C)C(=O)C(O)C3=C(C)C(OC(=O)C(O)C(NC(=O)OC(C)(C)C)c4ccccc4)CC(O)(C(OC(=O)c4ccccc4)C21)C3(C)C (stereo unspecified) + CC1OCC2(CCN(c3cnc(Sc4ccnc(N)c4Cl)c(N)n3)CC2)C1N | < 10 nM | < 10 nM | < 10 nM | < 10 nM | < 10 nM | 2.69% | 2.31% | 3.64% | 1.94% | 3.42% | 3.58% | 1.65% | 2.04% | 1.99% | 1.61% | 2.12% | 2.12% | 2.53% | 1.7% | 1.93% | viability, T/C [9]: 4.2%; viability, T/C [15]: 2.83%; viability, T/C [41]: 2.14%; viability, T/C [21]: 4.63%; viability, T/C [42]: 2.84%; viability, T/C [43]: 3.01%; viability, T/C [44]: 3.67%; viability, T/C [27]: 2.53%; viability, T/C [45]: 1.63%; viability, T/C [46]: 1.81%; viability, T/C [47]: 2.09%; viability, T/C [33]: 1.96%; viability, T/C [48]: 1.82%; viability, T/C [49]: 1.73%; viability, T/C [50]: 1.74%
3 | CC1OCC2(CCN(c3cnc(Sc4ccnc(N)c4Cl)c(N)n3)CC2)C1N (stereo unspecified) + C=CC(=O)N1CCN(c2nc(=O)n(-c3c(C)ccnc3C(C)C)c3nc(-c4c(O)cccc4F)c(F)cc23)C(C)C1 | > 10000 nM | > 10000 nM | > 10000 nM | > 10000 nM | 449 nM | 99.3% | 97% | 99.9% | 93.2% | 101% | 99% | 80.4% | 87.2% | 53.9% | 52.8% | 99.2% | 105% | 104% | 96.1% | 99.4% | viability, T/C [51]: 107%; viability, T/C [41]: 101%; viability, T/C [52]: 102%; viability, T/C [42]: 93.4%; viability, T/C [43]: 90.1%; viability, T/C [44]: 94.4%; viability, T/C [53]: 80.2%; viability, T/C [45]: 76.6%; viability, T/C [46]: 82.9%; viability, T/C [47]: 80.5%; viability, T/C [54]: 62.8%; viability, T/C [48]: 56.4%; viability, T/C [49]: 40.7%; viability, T/C [50]: 22.7%; viability, T/C [55]: 19.5%
4 | Cn1nccc1Nc1nccc(-c2cc3c(s2)C(C)(C)N(CCN2CCOCC2)C3=O)n1 + CC1OCC2(CCN(c3cnc(Sc4ccnc(N)c4Cl)c(N)n3)CC2)C1N | 306 nM | 219 nM | 224 nM | 176 nM | 77.4 nM | 106% | 107% | 104% | 114% | 106% | 114% | 118% | 85.6% | 86.8% | 39.5% | 48.3% | 9.06% | 4.04% | 22.5% | 7.68% | viability, T/C [51]: 5.66%; viability, T/C [41]: 2.95%; viability, T/C [52]: 4.77%; viability, T/C [42]: 24.3%; viability, T/C [43]: 4.22%; viability, T/C [44]: 2.3%; viability, T/C [53]: 3.66%; viability, T/C [45]: 13%; viability, T/C [46]: 2.81%; viability, T/C [47]: 1.49%; viability, T/C [54]: 2.19%; viability, T/C [48]: 5.87%; viability, T/C [49]: 2.69%; viability, T/C [50]: 1.11%; viability, T/C [55]: 1.69%
5 | CN(C)C/C=C/C(=O)Nc1cc2c(Nc3ccc(F)c(Cl)c3)ncnc2cc1O[C@H]1CCOC1 + COc1cc2nc(C)nc(NC(C)c3cc(N)cc(C(F)(F)F)c3)c2cc1OC1CCOC1 | > 100 nM | > 100 nM | > 100 nM | > 100 nM | > 100 nM | 108% | 96.8% | 99.2% | 89.2% | 113% | 105% | 84.4% | 79.3% | 81.4% | 61.4% |  |  |  |  |  | viability, T/C [6]: 102%; viability, T/C [7]: 107%; viability, T/C [8]: 112%; viability, T/C [9]: 110%; viability, T/C [12]: 94.3%; viability, T/C [13]: 105%; viability, T/C [14]: 106%; viability, T/C [15]: 115%; viability, T/C [18]: 96.7%; viability, T/C [19]: 93.8%; viability, T/C [20]: 91%; viability, T/C [21]: 105%; viability, T/C [24]: 93.4%; viability, T/C [25]: 97.9%; viability, T/C [26]: 97.4%; viability, T/C [27]: 100%; viability, T/C [30]: 109%; viability, T/C [31]: 105%; viability, T/C [32]: 114%; viability, T/C [33]: 91.2%
6 | CC(C)NCC(C(=O)N1CCN(c2ncnc3c2C(C)CC3O)CC1)c1ccc(Cl)cc1 (stereo unspecified) + COc1cc2nc(C)nc(NC(C)c3cc(N)cc(C(F)(F)F)c3)c2cc1OC1CCOC1 | 414 nM | 305 nM | 359 nM | 571 nM | 36.4 nM | 103% | 83.4% | 100% | 85.4% | 98.2% | 87.8% | 107% | 90.4% | 52.4% | 34.7% | 54.8% | 34.8% | 3.87% | 47.2% | 21.6% | viability, T/C [51]: 7.18%; viability, T/C [41]: 1.85%; viability, T/C [52]: 7.05%; viability, T/C [42]: 50.2%; viability, T/C [43]: 24.6%; viability, T/C [44]: 1.87%; viability, T/C [53]: 0.23%; viability, T/C [45]: 96.5%; viability, T/C [46]: 5.81%; viability, T/C [47]: 0.99%; viability, T/C [54]: 8.22%; viability, T/C [48]: 18.7%; viability, T/C [49]: 0.82%; viability, T/C [50]: 0.18%; viability, T/C [55]: 0.39%
7 | CC(=O)Nc1cccc(-n2c(=O)n(C3CC3)c(=O)c3c(Nc4ccc(I)cc4F)n(C)c(=O)c(C)c32)c1 |  |  |  |  |  |  |  |  |  |  |  |  |  |  |  |  |  |  |  |  | viability, T/C (compound 0.0001 µM): 102% [middle of 5 runs]; viability, T/C (compound 0.001 µM): 21.2% [middle of 5 runs]; viability, T/C (compound 0.00316 µM): 9.7% [middle of 5 runs]; viability, T/C (compound 0.01 µM): 4.01% [middle of 5 runs]; viability, T/C (compound 0.0316 µM): 1.43% [middle of 5 runs]; IC50 (curve of compound): 0.622 nM [middle of 5 runs]
